Assay results reported in ChEMBL document CHEMBL1139192, “Novel bis(indolyl)maleimide pyridinophanes that are potent, selective inhibitors of glycogen synthase kinase-3” (Bioorg Med Chem Lett, 2007).
Active and inactive are the calls of the source. No cut-off for these calls is given here.

Assays:
[1] = target: Insulin-like growth factor 1 receptor (Homo sapiens) (UniProt P08069); assay: Residual activity of human IGF1R at 1 uM relative to control
[2] = target: T1, Protein kinase C theta type (Homo sapiens, UniProt Q04759); assay: Inhibition of human PKCtheta
Target sequence in this assay (Q04759 whole entry): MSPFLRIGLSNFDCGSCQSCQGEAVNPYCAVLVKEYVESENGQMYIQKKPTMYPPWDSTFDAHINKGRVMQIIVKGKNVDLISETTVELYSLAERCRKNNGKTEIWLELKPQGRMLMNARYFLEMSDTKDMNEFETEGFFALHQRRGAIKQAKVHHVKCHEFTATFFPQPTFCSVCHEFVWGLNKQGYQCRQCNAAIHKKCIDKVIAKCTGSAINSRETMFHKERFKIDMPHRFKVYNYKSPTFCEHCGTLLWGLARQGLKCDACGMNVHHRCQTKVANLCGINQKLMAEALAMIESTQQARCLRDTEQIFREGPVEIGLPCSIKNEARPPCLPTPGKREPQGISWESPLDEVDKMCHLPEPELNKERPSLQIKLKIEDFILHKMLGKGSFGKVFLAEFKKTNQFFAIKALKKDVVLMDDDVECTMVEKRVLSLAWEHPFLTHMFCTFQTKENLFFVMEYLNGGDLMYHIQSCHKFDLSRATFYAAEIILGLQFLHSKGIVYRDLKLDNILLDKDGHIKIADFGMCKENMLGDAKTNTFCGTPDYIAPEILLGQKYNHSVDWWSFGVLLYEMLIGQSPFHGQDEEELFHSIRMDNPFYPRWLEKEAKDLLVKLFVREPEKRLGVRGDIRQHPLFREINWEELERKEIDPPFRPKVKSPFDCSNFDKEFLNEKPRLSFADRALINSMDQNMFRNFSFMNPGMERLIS

[3] = target: T1, Protein kinase C theta type; assay: Residual activity of human PKCtheta at 1 uM relative to control
Target sequence in this assay (Q04759 whole entry, looked up): as the sequence (Q04759 whole entry) above

Homo sapiens [4] = species: Homo sapiens; assay: Residual activity of human PKBgamma at 1 uM relative to control
[5] = target: Tyrosine-protein kinase Blk (Mus musculus) (UniProt P16277); assay: Inhibition of mouse Blk at 1 uM relative to control; values are per cent of control
Sequence of Tyrosine-protein kinase Blk (Mus musculus) (P16277 whole entry): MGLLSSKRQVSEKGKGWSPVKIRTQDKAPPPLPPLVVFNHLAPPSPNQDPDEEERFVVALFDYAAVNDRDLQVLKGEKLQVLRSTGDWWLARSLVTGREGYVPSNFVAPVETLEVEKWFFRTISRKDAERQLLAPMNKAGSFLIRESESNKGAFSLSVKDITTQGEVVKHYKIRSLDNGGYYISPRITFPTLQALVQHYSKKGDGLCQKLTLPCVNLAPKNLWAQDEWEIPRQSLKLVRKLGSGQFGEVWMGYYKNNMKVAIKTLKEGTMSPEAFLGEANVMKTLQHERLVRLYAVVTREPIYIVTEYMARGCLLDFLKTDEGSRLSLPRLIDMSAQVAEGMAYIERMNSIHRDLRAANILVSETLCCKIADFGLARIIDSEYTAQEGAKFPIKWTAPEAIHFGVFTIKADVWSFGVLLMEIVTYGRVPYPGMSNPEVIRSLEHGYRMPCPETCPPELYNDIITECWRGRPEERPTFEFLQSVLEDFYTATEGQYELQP

[6] = target: T2, BDNF/NT-3 growth factors receptor (Homo sapiens, UniProt Q16620); assay: Inhibition of human TrkB at 1 uM relative to control
Target sequence in this assay (Q16620 32-822 limits assumed): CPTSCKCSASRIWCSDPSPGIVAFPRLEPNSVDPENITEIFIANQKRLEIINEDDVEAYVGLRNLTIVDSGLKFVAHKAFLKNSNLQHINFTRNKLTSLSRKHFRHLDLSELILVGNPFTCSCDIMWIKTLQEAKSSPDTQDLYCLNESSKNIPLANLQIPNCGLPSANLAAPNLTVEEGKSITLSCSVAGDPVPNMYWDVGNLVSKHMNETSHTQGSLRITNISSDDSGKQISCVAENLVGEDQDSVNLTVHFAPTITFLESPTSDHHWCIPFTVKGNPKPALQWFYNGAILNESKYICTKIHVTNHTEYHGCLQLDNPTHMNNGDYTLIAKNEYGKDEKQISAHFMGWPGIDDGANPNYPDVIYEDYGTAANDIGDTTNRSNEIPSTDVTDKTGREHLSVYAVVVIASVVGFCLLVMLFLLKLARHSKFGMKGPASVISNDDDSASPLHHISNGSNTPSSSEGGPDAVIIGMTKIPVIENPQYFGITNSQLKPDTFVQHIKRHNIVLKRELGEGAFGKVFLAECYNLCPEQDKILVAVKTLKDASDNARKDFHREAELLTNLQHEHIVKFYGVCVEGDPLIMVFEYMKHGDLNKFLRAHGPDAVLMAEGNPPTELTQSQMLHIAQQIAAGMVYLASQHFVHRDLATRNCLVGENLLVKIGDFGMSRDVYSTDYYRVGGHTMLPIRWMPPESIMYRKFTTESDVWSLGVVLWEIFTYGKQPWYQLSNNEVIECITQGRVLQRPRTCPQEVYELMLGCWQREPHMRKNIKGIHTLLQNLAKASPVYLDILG

[7] = target: T3, Protein kinase C epsilon type (Homo sapiens) (UniProt Q02156); assay: Residual activity of human PKCepsilon at 1 uM relative to control
T3 sequence (whole entry): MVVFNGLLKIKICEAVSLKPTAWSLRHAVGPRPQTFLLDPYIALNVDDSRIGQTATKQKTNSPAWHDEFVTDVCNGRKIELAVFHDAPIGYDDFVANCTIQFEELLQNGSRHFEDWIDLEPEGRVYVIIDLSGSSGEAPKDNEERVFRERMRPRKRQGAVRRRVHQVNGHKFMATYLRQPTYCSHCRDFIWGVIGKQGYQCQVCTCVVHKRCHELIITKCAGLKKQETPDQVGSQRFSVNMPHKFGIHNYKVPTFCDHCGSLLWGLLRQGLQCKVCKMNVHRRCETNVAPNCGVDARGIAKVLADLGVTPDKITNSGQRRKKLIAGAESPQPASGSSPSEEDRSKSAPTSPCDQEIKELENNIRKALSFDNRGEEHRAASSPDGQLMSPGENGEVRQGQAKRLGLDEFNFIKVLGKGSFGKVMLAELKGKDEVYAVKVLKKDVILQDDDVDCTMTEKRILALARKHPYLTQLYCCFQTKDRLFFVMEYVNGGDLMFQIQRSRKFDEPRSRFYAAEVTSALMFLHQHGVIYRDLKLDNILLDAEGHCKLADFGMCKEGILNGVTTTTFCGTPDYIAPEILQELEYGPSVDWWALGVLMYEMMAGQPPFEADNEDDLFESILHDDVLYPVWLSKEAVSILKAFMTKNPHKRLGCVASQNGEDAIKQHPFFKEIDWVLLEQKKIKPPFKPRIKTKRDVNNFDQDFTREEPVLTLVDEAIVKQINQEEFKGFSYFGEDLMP

[8] = target: Tyrosine-protein kinase receptor UFO (Homo sapiens) (UniProt P30530); assay: Residual activity of human Axl at 1 uM relative to control
Sequence of Tyrosine-protein kinase receptor UFO (Homo sapiens) (P30530 whole entry): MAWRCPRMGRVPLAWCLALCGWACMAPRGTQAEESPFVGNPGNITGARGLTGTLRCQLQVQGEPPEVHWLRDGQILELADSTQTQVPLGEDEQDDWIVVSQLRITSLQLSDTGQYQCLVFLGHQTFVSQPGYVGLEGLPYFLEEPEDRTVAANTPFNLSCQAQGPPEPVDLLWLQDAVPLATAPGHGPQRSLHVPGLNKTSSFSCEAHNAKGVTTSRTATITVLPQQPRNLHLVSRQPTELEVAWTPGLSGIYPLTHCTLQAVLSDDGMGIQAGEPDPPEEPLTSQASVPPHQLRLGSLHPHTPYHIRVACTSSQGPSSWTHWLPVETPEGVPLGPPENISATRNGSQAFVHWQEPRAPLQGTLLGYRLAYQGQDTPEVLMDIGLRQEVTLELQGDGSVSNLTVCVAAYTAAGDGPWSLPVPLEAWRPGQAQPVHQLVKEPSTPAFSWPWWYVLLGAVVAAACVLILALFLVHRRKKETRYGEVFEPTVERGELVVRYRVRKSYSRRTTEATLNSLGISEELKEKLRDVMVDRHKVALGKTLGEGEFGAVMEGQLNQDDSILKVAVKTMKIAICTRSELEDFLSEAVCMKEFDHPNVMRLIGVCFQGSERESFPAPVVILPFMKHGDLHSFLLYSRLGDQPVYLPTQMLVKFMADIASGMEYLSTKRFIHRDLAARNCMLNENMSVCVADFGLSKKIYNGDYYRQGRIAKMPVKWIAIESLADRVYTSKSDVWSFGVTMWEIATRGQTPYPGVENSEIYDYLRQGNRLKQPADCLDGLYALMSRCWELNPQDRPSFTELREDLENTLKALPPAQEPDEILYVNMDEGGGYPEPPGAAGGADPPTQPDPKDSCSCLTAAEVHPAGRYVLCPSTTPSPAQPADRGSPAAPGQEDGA

[9] = target: T2, BDNF/NT-3 growth factors receptor; assay: Inhibition of human TrkB
[10] = target: Ribosomal protein S6 kinase alpha-5 (Homo sapiens, UniProt O75582); assay: Inhibition of human MSK1
[11] = target: Ribosomal protein S6 kinase alpha-1 (Homo sapiens, UniProt Q15418); assay: Inhibition of human Rsk1
[12] = target: Cytoplasmic tyrosine-protein kinase BMX (Homo sapiens) (UniProt P51813); assay: Inhibition of human BMX kinase at 1 uM relative to control; values are per cent of control
Sequence of Cytoplasmic tyrosine-protein kinase BMX (Homo sapiens) (P51813 whole entry): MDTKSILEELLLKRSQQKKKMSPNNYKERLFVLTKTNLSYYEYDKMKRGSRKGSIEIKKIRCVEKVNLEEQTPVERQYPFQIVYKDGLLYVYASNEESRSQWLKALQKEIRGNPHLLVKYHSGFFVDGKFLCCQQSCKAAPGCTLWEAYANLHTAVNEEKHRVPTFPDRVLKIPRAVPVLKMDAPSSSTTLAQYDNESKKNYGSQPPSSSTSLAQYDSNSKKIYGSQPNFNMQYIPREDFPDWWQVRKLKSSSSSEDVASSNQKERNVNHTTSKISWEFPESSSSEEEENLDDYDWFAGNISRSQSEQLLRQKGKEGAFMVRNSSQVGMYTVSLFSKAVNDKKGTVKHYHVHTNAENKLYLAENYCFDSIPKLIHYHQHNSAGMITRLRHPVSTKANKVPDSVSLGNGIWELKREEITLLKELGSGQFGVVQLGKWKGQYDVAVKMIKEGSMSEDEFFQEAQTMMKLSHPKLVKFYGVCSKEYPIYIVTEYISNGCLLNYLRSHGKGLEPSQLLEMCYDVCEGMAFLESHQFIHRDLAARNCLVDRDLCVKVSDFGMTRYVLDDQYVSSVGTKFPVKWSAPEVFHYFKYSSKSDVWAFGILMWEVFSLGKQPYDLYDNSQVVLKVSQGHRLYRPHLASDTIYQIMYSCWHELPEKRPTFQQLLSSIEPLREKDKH

Homo sapiens [13] = species: Homo sapiens; assay: Selectivity for human recombinant GSK3-beta over human recombinant PKCbeta2

Sequence of Insulin-like growth factor 1 receptor (Homo sapiens) (P08069 31-736 limits assumed): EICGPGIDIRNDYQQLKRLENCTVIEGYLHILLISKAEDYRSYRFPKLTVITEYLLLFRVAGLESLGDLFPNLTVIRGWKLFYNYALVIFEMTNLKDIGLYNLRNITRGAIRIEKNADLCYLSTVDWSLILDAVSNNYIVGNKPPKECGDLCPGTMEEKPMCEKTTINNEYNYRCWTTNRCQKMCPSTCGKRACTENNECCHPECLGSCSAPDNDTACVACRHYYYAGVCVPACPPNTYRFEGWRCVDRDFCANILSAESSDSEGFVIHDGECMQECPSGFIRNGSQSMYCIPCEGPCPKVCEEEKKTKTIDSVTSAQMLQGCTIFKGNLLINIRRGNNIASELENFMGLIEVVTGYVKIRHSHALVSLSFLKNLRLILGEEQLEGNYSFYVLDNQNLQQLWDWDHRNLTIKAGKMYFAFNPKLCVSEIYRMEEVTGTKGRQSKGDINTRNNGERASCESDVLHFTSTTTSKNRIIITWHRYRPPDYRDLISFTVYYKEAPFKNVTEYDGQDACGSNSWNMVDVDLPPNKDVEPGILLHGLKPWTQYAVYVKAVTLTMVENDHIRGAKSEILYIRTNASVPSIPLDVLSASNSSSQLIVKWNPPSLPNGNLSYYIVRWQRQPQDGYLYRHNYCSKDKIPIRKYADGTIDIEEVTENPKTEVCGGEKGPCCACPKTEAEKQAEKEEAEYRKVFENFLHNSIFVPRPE
Sequence of Insulin-like growth factor 1 receptor (Homo sapiens) (P08069 741-1367 limits assumed): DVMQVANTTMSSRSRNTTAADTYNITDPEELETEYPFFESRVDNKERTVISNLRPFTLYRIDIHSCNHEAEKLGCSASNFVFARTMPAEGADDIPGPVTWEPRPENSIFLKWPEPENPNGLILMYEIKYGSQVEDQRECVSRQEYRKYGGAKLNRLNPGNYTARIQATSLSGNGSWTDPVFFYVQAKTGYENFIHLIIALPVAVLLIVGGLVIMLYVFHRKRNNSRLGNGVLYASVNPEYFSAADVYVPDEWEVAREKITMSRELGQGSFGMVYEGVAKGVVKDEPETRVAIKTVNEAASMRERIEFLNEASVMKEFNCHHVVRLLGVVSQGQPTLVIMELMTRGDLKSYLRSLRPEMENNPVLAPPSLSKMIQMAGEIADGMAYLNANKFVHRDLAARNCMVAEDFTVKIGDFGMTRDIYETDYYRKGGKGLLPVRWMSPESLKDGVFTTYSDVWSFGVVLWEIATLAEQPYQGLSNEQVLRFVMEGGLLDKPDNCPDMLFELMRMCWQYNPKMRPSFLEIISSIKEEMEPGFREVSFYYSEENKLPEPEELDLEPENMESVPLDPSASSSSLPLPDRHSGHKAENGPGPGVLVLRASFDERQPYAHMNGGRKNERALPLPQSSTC

residual activity [1] [%]	IC50 [2] [µM]	residual activity [3] [%]	residual activity (Homo sapiens [4]) [%]	residual activity [5] [%]	Activity [6]	residual activity [7] [%]	residual activity [8] [%]	IC50 [9] [µM]	IC50 [10] [µM]	IC50 [11] [µM]	residual activity [12] [%]	Ratio IC50 (Homo sapiens [13])	Compound
84	0.098	21	93	109	inactive	72	97	> 3	0.51	1.9	101	460	CN(C)c1nc2ccc1CCCn1cc(c3ccccc31)C1=C(C(=O)NC1=O)c1cn(c3ccccc13)CC2
37		27	106	70		83	104						CN(C)c1cc2cc(n1)CCCn1cc(c3ccccc31)C1=C(C(=O)NC1=O)c1cn(c3ccccc13)CCC2
106		33	105	91		97	100						O=C1NC(=O)C2=C1c1cn(c3ccccc13)CCCc1ccc(c(N3CCCC3)n1)CCCn1cc2c2ccccc21
42		29	103	74		93	106						O=C1NC(=O)C2=C1c1cn(c3ccccc13)CCCc1cc(nc(N3CCCC3)c1)CCCn1cc2c2ccccc21
